Assay results taken from patent US8435553B2, “Elastin stabilization of connective tissue” (Clemson University Research Foundation (CURF), priority 2005, dated 2013).
Where “and” joins values, the source holds several entries; their conditions need not be identical. Equal entries are not always repeated. Where two headings read alike, the source gives them in different places.

Key:
Rat skin fibroblasts [1] = test system: Rat skin fibroblasts
Experimental: (§1) Fresh porcine aorta was treated with Glut, Glut/TA, or Glut/PGG, as described above. After thorough rinsing (3x, 1 hr. each, 100 mL ddH2O), samples were orbitally shaken at 120 rpm 37° C. for 14 days in a PBS/azide buffer, pH7.4, for extraction of soluble, cytotoxic compounds (50 mL per 6 tissues samples, each 4 mm×4 mm).
(§2) Rat skin fibroblasts were seeded onto 24-well plates (50,000 cells/well) in 1 mL DMEM supplemented with 10% FBS and 1% penicillin-streptomycin. Cells were maintained in a humidified incubator at 37° C. with 10% CO2. After 24 hours, the media was removed and replaced with one of the PBS/azide solutions diluted 10-fold in fresh media. As control, a sample was held in buffer alone (negative control) and also in a 70% ethanol solution (positive control). Effectively, 100 μL of the ‘test solution’ was added to 900 μL of media for each well (except in the case of ethanol, in which no media was added). The cells were incubated with these solutions for 2 hours and then rinsed with 1 mL PBS. Viability of the cells was then assessed using a qualitative LIVE/DEAD® staining fluorescent stain. In addition, a quantitative measurement, MTS, was used to measure the activity of cell enzymes. Specifically, the reagent was diluted 5-fold in media, then applied to the cells for 90 minutes. A portion of the resulting solutions ([…]) was transferred to a 96-well plate and read at an absorbance of 490 nm. Samples were blanked to a well containing media and MTS reagent with no cells.

Rat skin fibroblasts [2] = test system: Rat skin fibroblasts; remark: listed apart in the source
Experimental: as §1, §2
Micrographs of cells introduced to LIVE/DEAD® were taken 45 minutes after exposure. Results are shown in FIGS. 6A-6E, in which living cells appear as light spots on the dark background, and dead cells appear as darker gray spots.

rat abdominal aorta = assay: CaCl2 chemical injury aneurysm model on rat abdominal aorta; assay type: in vivo, Sprague-Dawley rats
Excerpt: In vivo use of the disclosed agents was examined. The aneurysm model used was based on the perivascular application of a high concentration calcium chloride (CaCl2) solution, a method originally used to induce aneurysms in rabbit carotid arteries (see, Gertz SD, Kurgan A, Eisenberg D. J Clin Invest 1988;81(3):649-656.) and has more recently been used on abdominal aorta of rodents. (See, e.g., Freestone T., et al., Arterioscler Thromb Vasc Biol 1995;15(8):1145-1151. Freestone T., et al., Arterioscler Thromb Vasc Biol 1997;17(1):10-17. Tambiah J., et al. Br J Surg 2001;88(7):935-940.) This model results in a localized mild insult to the arterial tissue. In most studies, a significant increase in aortic diameter (indicative of aneurysm formation) was observed after 3 to 6 weeks post-injury. For this example, the CaCl2-based chemical injury was performed on rat aorta.
(§3) Adult male Sprague-Dawley rats were placed under general anesthesia (2% to 3% isoflurane), allowing for a midline incision along the abdomen in order to expose the infrarenal abdominal aorta. Once exposed, the abdominal aorta was treated with 0.03% PGG solution in saline for 15 minutes using a strip (1.5 cm×0.5 cm) of presoaked 8-ply sterile cotton gauze. The area was then briefly rinsed with saline, allowing induction of chemical injury (0.5 M CaCl2, delivered with gauze for 15 minutes). As controls, rat aortas were treated with physiological saline for 15 minutes, rinsed, and then subjected to calcium chloride. After treating with CaCl2, the gauze was removed and the abdominal cavity was closed with subcutaneous suture, followed by surgical staples. The rats were anesthetized after 28 days, at which point the abdominal aorta was again exposed. Digital photographs (before PGG application at day 0, as well as after 28 days) were used to measure percent increases in diameter after the 28 day period for each rat. Aortic tissue was collected for analysis.
Following superficial examination of the aortic segments, the segments were analyzed via desmosine analysis for elastin content. […]

[3] = Long-term binding of tannins to aortic tissue (extraction from explanted aorta); assay type: in vivo, Sprague-Dawley rats
Experimental: as §3, with “analysis. Vessels were also analyzed to determine the long-term binding of the tannins with the tissue. Tannins were extracted from explanted aorta immediately after treatment (labeled PGG in situ on FIG. 11) and measured levels were compared to those obtained from aorta explanted 28 days following PGG treatment (labeled PGG in vivo on FIG. 11).” for “analysis.”

elastase = assay: Elastase digestion of treated porcine aorta (mass loss, elastin histology); assay type: biochemical
Experimental: Fresh porcine aorta was cut into approximately 4 mm×4 mm squares and treated with 0.3% tannic acid (TA) (1.76 mM) in 50 mM HEPES […] buffered saline at pH 5.5 for 4 days at room temperature. A control sample was treated in mM Hepes buffered saline at pH5.5. Samples were then rinsed three times (1 hour each) in 100 mL ddH2O at room temperature and lyophilized to record dry weight. Samples (about 15-25 mg dry weight), both control and TA treated, were incubated with 1.0 mL pure elastase (20 units/ml, in 100 mM Tris, 1 mM CaCl2, 0.02% NaN3, pH 7.8 buffer) at 37° C. for 48 hours with orbital shaking at 650 rpm. Samples were then centrifuged (10000 rpm, 10 min. 4° C.) and supernatants retained to assess enzyme activity. Tissue samples were again rinsed three times (1 hour each) in 100 mL ddH2O at room temperature and lyophilized to record dry weight after elastase, and the percent of digested tissue was calculated. Elastin degradation was assessed by measuring mass loss (dry weight before and after elastase contact) and by preparation of histological slides stained with an elastin-specific stain (Voerhoff van Gieson stain).

pure aortic elastin = assay: Kinetics of binding of tannic acid to pure aortic elastin; design: species or system porcine
Experimental: Ascending porcine aorta was collected fresh at a slaughterhouse and transported to the laboratory on ice. After cleaning fat and adherent tissues, aorta was cut into 2×4 mm strips and thoroughly rinsed in cold saline. Aortic elastin was purified by a sequence of extractions. Specifically, aortic strips were suspended in 100 mM sodium hydroxide (60 strips in 100 mL) and incubated for 14 hours at 37° C. with collagenase (0.5 units/mg wet tissue) in 50 mM Tris buffer, 10 mM calcium chloride, pH 8.0. The collagenase preparation was pre-adsorbed with elastin fibers to remove residual elastolytic activities. The final digestion step completely removed residual collagen, leaving pure aortic elastin.
The pure aortic elastin strips were placed in 2 mL microfuge tubes and suspended in 1.5 mL of an 8 mg % TA solution prepared in a 50 mM disodium hydrogen phosphate, 0.9% sodium chloride buffer, pH 5.5. A second group consisted of pure aortic elastin suspended in a solution containing 8 mg % TA and 16 mg % Glut in the same buffer. As controls, TA solution and the mixture of TA and Glut were incubated without elastin samples. Samples were incubated at room temperature and at defined time intervals (0, 20, 40, 60, 120, 360 minutes and 24 hours), samples were retrieved and analyzed for TA content in solution. Specifically, samples were mixed with a tungstate/phosphomolybdate reagent followed by addition of a saturated sodium carbonate solution and ddH2O. After 10 minutes at room temperature, OD at 760 nm was measured in a microplate spectrophotometer. Standard curves were constructed with TA in the range of 0-8 mg % and with TA (0-8 mg %) in mixtures with Glut (16 mg % ). Glut interference with the TA color reaction was minimal (no statistical differences found for all data points). Finally, the elastin strops were rinsed in ddH2O and lyophilized. The amount of TA bound to pure aortic elastin was calculated from the differences between initial TA concentration in solution and concentration of TA in solution after incubation with elastin strops and were expresses as micrograms of TA bound by 1 mg dry elastin. All samples were assayed in triplicate.

porcine aorta [4] = assay: Recoil of aortic rings by opening angle measurement; details: aortic rings cut radially, relaxed 15 minutes; n = 5
Experimental: Fresh porcine aorta was cut across the diameter into continuous rings approximately 1 cm in height as illustrated in FIG. 5A and treated with glutaraldehyde (Glut treatment). For this treatment, aortic ring samples were first fixed with 0.6% glutaraldehyde in 50 mM Hepes buffered saline, pH 7.4, overnight at room temperatures, followed by 0.2% glutaraldehyde in the same buffer for 7 days at room temperatures.
A portion of the Glut-treated rings were then treated with 0.3% pentagalloylglucose (PGG). PGG was first prepared from TA as outlined by Hagerman, et al. (Hagerman , Zhao Y., and Johanson J., “Methods for determination of condensed and hydrolyzable tannins,” Shahadi, F., Ed., Antinutrients and Phytochemicals in Foods, Wash., D.C., American Chemical Society, p. 209-222 (1997)). Specifically, TA was methanolyzed using a solution of methanol and acetate buffer. After methanolysis, the methanol was removed by rotary evaporation and replaced with ddH2O. A series of separate extractions involving diethyl ether and ethyl acetate, along with rinses of dilute methanol and ddH2O was performed to purify the PGG. The resulting precipitate was centrifuged and lyophilized to form a solid. […]
Samples were then tested for ability to recoil using opening angle measurements. […] Using these lines, the opening angles of the aortic rings were calculated. […]

porcine aorta [5] = assay: Tensile stress/strain test, elastic modulus of aorta; details: slope of stress-strain curve between 0 and 5% strain; n = 4
Experimental: To evaluate mechanical properties, aorta was cut to form dumbbell shapes approximately 40 mm in length, approximately 10 mm wide at each end, and approximately 5 mm wide at the center, with the long axis of the dumbbell shape being parallel to the circumferential direction of the aorta. Tensile properties of the samples were tested using standard stress/strain analysis on a Synergie 100 testing apparatus (MTS Systems Corporation, Eden Prairie, Minn.) operated at a constant uniaxial velocity of 0.2 mm/sec using a 10-Newton load cell to determine elastic modulus of the samples. Elastic modulus was calculated as the slope of the stress-strain curve between 0 and 5% strain.

## CCO [EtOH, ethanol]
Rat skin fibroblasts [1]; 14 day tissue extract diluted 10-fold, 2 hours exposure, absorbance at 490 nm, n = 3
  Viability (MTS assay): 0.03
Rat skin fibroblasts [2]
  cell viability after exposure to extracts: essentially no viable cells
Rat skin fibroblasts [2]; 14 day tissue extract diluted 10-fold in media, 2 hours exposure
  Viability (live/dead assay): 0%

## O=C(OC[C@H]1O[C@@H](OC(=O)c2cc(O)c(O)c(O)c2)[C@H](OC(=O)c2cc(O)c(O)c(O)c2)[C@@H](OC(=O)c2cc(O)c(O)c(O)c2)[C@@H]1OC(=O)c1cc(O)c(O)c(O)c1)c1cc(O)c(O)c(O)c1 [PGG, pentagalloylglucose]
Rat abdominal aorta; 0.03% PGG perivascular 15 minutes before CaCl2, 28 days
  percentage change in diameter of aortic segments: less than 10%
Rat abdominal aorta; 0.03% PGG perivascular 15 minutes before CaCl2, 28 days, n=12 per group
  increase in diameter of aortic segments: about 100 μm
Rat abdominal aorta; aortic segments 28 days post-injury
  desmosine content (elastin content): about 1350 pmol desmosine/mg protein
Rat skin fibroblasts [1]
  cytotoxicity comparison: less cytotoxic than TA
[3]; explanted 28 days following PGG treatment (PGG in vivo)
  level of tannins extracted from tissue: about 1.3 μg PGG/mg dry tissue
[3]; explanted immediately after treatment (PGG in situ)
  level of tannins extracted from tissue: about 1.8 μg PGG/mg dry tissue

## O=C(OC[C@H]1O[C@@H](OC(=O)c2cc(O)c(O)c(OC(=O)c3cc(O)c(O)c(O)c3)c2)[C@H](OC(=O)c2cc(O)c(O)c(OC(=O)c3cc(O)c(O)c(O)c3)c2)[C@@H](OC(=O)c2cc(O)c(O)c(OC(=O)c3cc(O)c(O)c(O)c3)c2)[C@@H]1OC(=O)c1cc(O)c(O)c(OC(=O)c2cc(O)c(O)c(O)c2)c1)c1cc(O)c(O)c(OC(=O)c2cc(O)c(O)c(O)c2)c1 [TA, tannic acid]
elastase; 0.3% TA pre-treated aorta after elastase
  elastin fibers in histology (Voerhoff van Gieson stain) after elastase: fully preserved
elastase; 0.3% TA pre-treatment 4 days pH 5.5, elastase 20 units/ml, 37° C., 48 hours, n=6
  mass lost after elastase (percent of digested tissue): 4-5% and 4.33%
Pure aortic elastin; after 6 hours incubation with elastin
  TA remaining in solution, of initial TA: 10%
Pure aortic elastin; at 24 hours incubation with elastin
  TA remaining in solution, of initial TA: less than 3.5%
Pure aortic elastin; rapid binding within the first 6 hours, then plateau
  TA bound at leveling off: about 3 mg of TA/mg dry elastin
Pure aortic elastin; within 1 hour of incubation with elastin, 8 mg % TA, pH 5.5
  decrease of amount of TA in solution: about 50%

## O=CCCCC=O [Glut, glutaraldehyde]
Porcine aorta [4]
  Mean opening angle: 35.9 degrees
Rat skin fibroblasts [1]; rat, 2 h
  Viability (MTS assay): 1.04
Porcine aorta [5]
  Mean Elastic Modulus: 1.28 kPa
Rat skin fibroblasts [2]
  cell viability after exposure to extracts: remained viable
Rat skin fibroblasts [2]; rat, 2 h
  Viability (live/dead assay): 100%
